Test system: PC12 cells
Assay: Neurite sprouting in PC12 cells
Assay type: cell-based
Conditions: 10^-6 M, serum-free vehicle with 50 ng/ml NGF, third day; controls 21.5
Description: The cells are then washed three times in a serum-free vehicle. […] This effect is evaluated by counting the number of cells with neurites at the third day.

Structure (SMILES) | % of the no. of cells with neurites at 3rd day [%]
CCCCCCCCCCCCC/C=C/[C@@H](O)[C@H](CO[C@@H]1O[C@H](CO)[C@@H](O[C@@H]2O[C@H](CO)[C@H](O[C@@H]3O[C@H](CO)[C@H](O)[C@H](O[C@@H]4O[C@H](CO)[C@H](O)[C@H](O)[C@H]4O)[C@H]3NC(C)=O)[C@H](O[C@]3(C(=O)OCC)C[C@H](O)[C@@H](NC(C)=O)[C@H]([C@H](O)[C@H](O)CO)O3)[C@H]2O)[C@H](O)[C@H]1O)NC(=O)CCCCCCCCCCCCCCCCC [Ethylic ester of GM1, Ethyl ester of the ganglioside GM1] | 37.1
CCCCCCCCCCCCC/C=C/[C@@H](O)[C@H](CO[C@@H]1O[C@H](CO)[C@@H](O[C@@H]2O[C@H](CO)[C@H](O[C@@H]3O[C@H](CO)[C@H](O)[C@H](O[C@@H]4O[C@H](CO)[C@H](O)[C@H](O)[C@H]4O)[C@H]3NC(C)=O)[C@H](O[C@]3(C(=O)NCCO)C[C@H](O)[C@@H](NC(C)=O)[C@H]([C@H](O)[C@H](O)CO)O3)[C@H]2O)[C@H](O)[C@H]1O)NC(=O)CCCCCCCCCCCCCCCCC [Ethanolamide of GM1, Ethanolamide of the ganglioside GM1] | 41.2
CCCCCCCCCCCCC/C=C/[C@@H](OC(C)=O)[C@H](CO[C@@H]1O[C@H](COC(C)=O)[C@@H](O[C@@H]2O[C@H](COC(C)=O)[C@H](O[C@@H]3O[C@H](COC(C)=O)[C@H](OC(C)=O)[C@H](O[C@@H]4O[C@H](COC(C)=O)[C@H](OC(C)=O)[C@H](OC(C)=O)[C@H]4OC(C)=O)[C@H]3NC(C)=O)[C@H](O[C@]3(C(=O)O)C[C@H](OC(C)=O)[C@@H](NC(C)=O)[C@H]([C@H](OC(C)=O)[C@@H](COC(C)=O)OC(C)=O)O3)[C@H]2OC(C)=O)[C@H](OC(C)=O)[C@H]1OC(C)=O)NC(=O)CCCCCCCCCCCCCCCCC [Peracetylated GM1, Peracetylated derivative of the ganglioside GM1] | 30.2
CCCCCCCCCCCCC/C=C/[C@@H](O)[C@H](CO[C@@H]1O[C@H](CO)[C@@H](O[C@@H]2O[C@H](CO)[C@H](O[C@@H]3O[C@H](CO)[C@H](O)[C@H](O[C@@H]4O[C@H](CO)[C@H](O)[C@H](O)[C@H]4O)[C@H]3NC(C)=O)[C@H](O[C@]3(C(=O)OCC(=O)OCC)C[C@H](O)[C@@H](NC(C)=O)[C@H]([C@H](O)[C@H](O)CO)O3)[C@H]2O)[C@H](O)[C@H]1O)NC(=O)CCCCCCCCCCCCCCCCC [Etoxycarbonylmethylic ester of GM1, Ethoxycarbonylmethyl ester of the ganglioside GM1] | 27.3
CCCCCCCCCCCCC/C=C/[C@@H](O)[C@H](CO[C@@H]1O[C@H](CO)[C@@H](O[C@@H]2O[C@H](CO)[C@H](O[C@@H]3O[C@H](CO)[C@H](O)[C@H](O[C@@H]4O[C@H](CO)[C@H](O)[C@H](O)[C@H]4O)[C@H]3NC(C)=O)[C@H](O[C@]3(C(=O)NC(C)C)C[C@H](O)[C@@H](NC(C)=O)[C@H]([C@H](O)[C@H](O)CO)O3)[C@H]2O)[C@H](O)[C@H]1O)NC(=O)CCCCCCCCCCCCCCCCC [Isopropylamide of GM1, Isopropylamide of the ganglioside GM1] | 31.4
CCCCCCCCCCCCC/C=C/[C@@H](O)[C@H](CO[C@@H]1O[C@H](CO)[C@@H](O[C@@H]2O[C@H](CO)[C@H](O[C@@H]3O[C@H](CO)[C@H](O)[C@H](O[C@@H]4O[C@H](CO)[C@H](O)[C@H](O)[C@H]4O)[C@H]3NC(C)=O)[C@H](O[C@]3(C(=O)NCC)C[C@H](O)[C@@H](NC(C)=O)[C@H]([C@H](O)[C@H](O)CO)O3)[C@H]2O)[C@H](O)[C@H]1O)NC(=O)CCCCCCCCCCCCCCCCC [Ethylamide of GM1, Ethylamide of the ganglioside GM1] | 32.2
CCCCCCCCCCCCC/C=C/[C@@H](O)[C@H](CO[C@@H]1O[C@H](CO)[C@@H](O[C@@H]2O[C@H](CO)[C@H](O[C@@H]3O[C@H](CO)[C@H](O)[C@H](O[C@@H]4O[C@H](CO)[C@H](O)[C@H](O)[C@H]4O)[C@H]3NC(C)=O)[C@H](O[C@]3(C(=O)NCCN(C)C)C[C@H](O)[C@@H](NC(C)=O)[C@H]([C@H](O)[C@H](O)CO)O3)[C@H]2O)[C@H](O)[C@H]1O)NC(=O)CCCCCCCCCCCCCCCCC [Dimethylaminoethylamide of GM1, Dimethylaminoethylamide of the ganglioside GM1] | 34.8
CCCCCCCCCCCCC/C=C/[C@@H](O)[C@H](CO[C@@H]1O[C@H](CO)[C@@H](O[C@@H]2O[C@H](CO)[C@H](O[C@@H]3O[C@H](CO)[C@H](O)[C@H](O[C@@H]4O[C@H](CO)[C@H](O)[C@H](O)[C@H]4O)[C@H]3NC(C)=O)[C@H](O[C@]3(C(=O)N(C)C)C[C@H](O)[C@@H](NC(C)=O)[C@H]([C@H](O)[C@H](O)CO)O3)[C@H]2O)[C@H](O)[C@H]1O)NC(=O)CCCCCCCCCCCCCCCCC [Dimethylamide of GM1, Dimethylamide of the ganglioside GM1] | 34.3
CCCCCCCCCCCCC/C=C/[C@@H](O)[C@H](CO[C@@H]1O[C@H](CO)[C@@H](O[C@@H]2O[C@H](CO)[C@H](O[C@@H]3O[C@H](CO)[C@H](O)[C@H](O[C@@H]4O[C@H](CO)[C@H](O)[C@H](O)[C@H]4O)[C@H]3NC(C)=O)[C@H](O[C@]3(C(=O)NCc4ccccc4)C[C@H](O)[C@@H](NC(C)=O)[C@H]([C@H](O)[C@H](O)CO)O3)[C@H]2O)[C@H](O)[C@H]1O)NC(=O)CCCCCCCCCCCCCCCCC [Benzylamide of GM1, Benzylamide of the ganglioside GM1] | 30.8
CCCCCCCCCCCCC/C=C/[C@@H](O)[C@H](CO[C@@H]1O[C@H](CO)[C@@H](O[C@@H]2O[C@H](CO)[C@H](O[C@@H]3O[C@H](CO)[C@H](O)[C@H](O[C@@H]4O[C@H](CO)[C@H](O)[C@H](O)[C@H]4O)[C@H]3NC(C)=O)[C@H](O[C@]3(C(=O)OC(C)(C)C)C[C@H](O)[C@@H](NC(C)=O)[C@H]([C@H](O)[C@H](O)CO)O3)[C@H]2O)[C@H](O)[C@H]1O)NC(=O)CCCCCCCCCCCCCCCCC [Tertiarbutylic ester of GM1, Tertiary butyl ester of the ganglioside GM1] | 32.3
CCCCCCCCCCCCC/C=C/[C@@H](OC(C)=O)[C@H](CO[C@@H]1O[C@H](COC(C)=O)[C@@H](O[C@@H]2O[C@H](COC(C)=O)[C@H](O[C@@H]3O[C@H](COC(C)=O)[C@H](OC(C)=O)[C@H](O[C@@H]4O[C@H](COC(C)=O)[C@H](OC(C)=O)[C@H](OC(C)=O)[C@H]4OC(C)=O)[C@H]3NC(C)=O)[C@H](O[C@]3(C(=O)OC)C[C@H](OC(C)=O)[C@@H](NC(C)=O)[C@H]([C@H](OC(C)=O)[C@@H](COC(C)=O)OC(C)=O)O3)[C@H]2OC(C)=O)[C@H](OC(C)=O)[C@H]1OC(C)=O)NC(=O)CCCCCCCCCCCCCCCCC [Methylic ester of peracetylated GM1, Peracetylated derivative of the methyl ester of the ganglioside GM1] | 29.4
CCCCCCCCCCCCC/C=C/[C@@H](O)[C@H](CO[C@@H]1O[C@H](CO)[C@@H](O[C@@H]2O[C@H](CO)[C@H](O[C@@H]3O[C@H](CO)[C@H](O)[C@H](O[C@@H]4O[C@H](CO)[C@H](O)[C@H](O)[C@H]4O)[C@H]3NC(C)=O)[C@H](O[C@]3(C(=O)OCc4ccccc4)C[C@H](O)[C@@H](NC(C)=O)[C@H]([C@H](O)[C@H](O)CO)O3)[C@H]2O)[C@H](O)[C@H]1O)NC(=O)CCCCCCCCCCCCCCCCC [Benzylic ester of GM1, Benzyl ester of the ganglioside GM1] | 28.3
CCCCCCCCCCCCC/C=C/[C@@H](O)[C@H](CO[C@@H]1O[C@H](CO)[C@@H](O[C@@H]2O[C@H](CO)[C@H](O[C@@H]3O[C@H](CO)[C@H](O)[C@H](O[C@@H]4O[C@H](CO)[C@H](O)[C@H](O)[C@H]4O)[C@H]3NC(C)=O)[C@H](O[C@]3(C(=O)OC(C)C)C[C@H](O)[C@@H](NC(C)=O)[C@H]([C@H](O)[C@H](O)CO)O3)[C@H]2O)[C@H](O)[C@H]1O)NC(=O)CCCCCCCCCCCCCCCCC [Isopropylic ester of GM1, Isopropyl ester of the ganglioside GM1] | 37.0
CCCCCCCCCCCCC/C=C/[C@@H](O)[C@H](CO[C@@H]1O[C@H](CO)[C@@H](O[C@@H]2O[C@H](CO)[C@H](O[C@@H]3O[C@H](CO)[C@H](O)[C@H](O[C@@H]4O[C@H](CO)[C@H](O)[C@H](O)[C@H]4O)[C@H]3NC(C)=O)[C@H](O[C@]3(C(=O)N(C)CC)C[C@H](O)[C@@H](NC(C)=O)[C@H]([C@H](O)[C@H](O)CO)O3)[C@H]2O)[C@H](O)[C@H]1O)NC(=O)CCCCCCCCCCCCCCCCC [Ethylmethylamide of GM1, Ethylmethylamide of the ganglioside GM1] | 35.3
CCCCCCCCCCCCC/C=C/[C@@H](O)[C@H](CO[C@@H]1O[C@H](CO)[C@@H](O[C@@H]2O[C@H](CO)[C@H](O[C@@H]3O[C@H](CO)[C@H](O)[C@H](O[C@@H]4O[C@H](CO)[C@H](O)[C@H](O)[C@H]4O)[C@H]3NC(C)=O)[C@H](O[C@]3(C(=O)N(CC)CC)C[C@H](O)[C@@H](NC(C)=O)[C@H]([C@H](O)[C@H](O)CO)O3)[C@H]2O)[C@H](O)[C@H]1O)NC(=O)CCCCCCCCCCCCCCCCC [Diethylamide of GM1, Diethylamide of the ganglioside GM1] | 28.5
CCCCCCCCCCCCC/C=C/[C@@H](O)[C@H](CO[C@@H]1O[C@H](CO)[C@@H](O[C@@H]2O[C@H](CO)[C@H](O[C@@H]3O[C@H](CO)[C@H](O)[C@H](O[C@@H]4O[C@H](CO)[C@H](O)[C@H](O)[C@H]4O)[C@H]3NC(C)=O)[C@H](O[C@]3(C(=O)NCCCCCCO)C[C@H](O)[C@@H](NC(C)=O)[C@H]([C@H](O)[C@H](O)CO)O3)[C@H]2O)[C@H](O)[C@H]1O)NC(=O)CCCCCCCCCCCCCCCCC [6-hydroxyhexyl-1-amide of GM1, 6-hydroxyhexyl-1-amide of the ganglioside GM1] | 36.4
